Converted amounts (≈) assume the structure as drawn. Like-named read-outs stand apart in the source and are kept apart here.
Assays:
[1] = Drug distribution in organs analysis (LC/MS/MS); format: in vivo, CD-1 male mice; settings: CD-1 mice, iv 2 mg/Kg, 0.25-4 hours, plasma, kidney, small and large intestine
Procedure: Experiments described herein were performed on CD-1 male mice (average weight 24±2 grams, provided by BioLasco, Taiwan). The mice were injected intravenously with a solution of compound 1 in 5% ethanol and 30% PEG400 (2 mg/Kg body weight). After 0.25, 0.5, 1, 2, 4 hours of the iv injection, 0.5 ml of blood was collected via cardiac puncture. The bloods were placed in a centrifuge tube containing K-EDTA and centrifuged for 15 min at 4° C. under 1500 g to produce supernatants (plasma sample). At the same time points, lung, kidney, small intestine and large intestine of the mice were collected and preserved at −70° C. for similar analysis.
The concentration of compound 1 in various organ samples (i.e., plasma, large intestine, left kidney, lung, right kidney and small intestine) were analyzed by LC/MS/MS spectrometer (Waters Alliance 2790 LC and Micromass Quattro Ultima). For example, plasma sample was mixed with acetonitrile and then centrifuged to prepare supernatant that was analyzed by LC/MS/MS. The pharmacokinetic parameters were obtained by WinNonlin™ software by non-compartment method.

NCI-H460 = experiment: MTT cell survival assay, NCI-H460; format: cell-based; settings: Homo sapiens, 48 hours, read-out: IC50 (μg/ml), in vitro cell survival rate test, NCI-H460
Procedure: (§1) The NCI anti-cancer drug screen model was adopted to test anti-cancer effect of the exemplary compounds from Example 1. The isolated compound 1 from Example 1 was added into the culture media of human lung-cancer cells, A549, NCI-H460, CL1-0, CL1-5 or DMS 114, to test for tumor cell survival (either by MTT assay or colony formation assay). Compounds 4, 5, 6, and 7 were used in MTT assay against A549.
(§2) A549, CL1-0, and CL1-5 cells are human lung adenocarcinoma cell lines. CL1-0 cells are minimally invasive sub-lines with low migration. CL1-5 cell line, on the other hand, is highly invasive with high migration ability. The NCI-H460 cell line is derived from human large cell lung cancer, which is one of the major types of non-small cell lung carcinoma. DMS 114 is small cell lung cancer cell line, and was obtained from the American Type Culture Collection (Manassas, Va.).
(§3) MTT assay is commonly used to determine cell proliferation, percent of viable cells, and cytotoxicity. […]
(§4) To each of the 96 well plates containing A549, NCI-H460, CL1-0, CL1-5, DMS 114 or BEAS-2B, 0.03, 0.1, 0.3, 1 and 3 μg/ml of compound 1 were add. […] The survival rate of cells was calculated based on the measurement of absorption at the 570 nm wavelength by enzyme immunoassay analyzer.

DMS 114 = experiment: MTT cell survival assay, DMS 114; format: cell-based; settings: Homo sapiens, 48 hours, read-out: IC50 against DMS 114
Procedure: as §1, §2, §3, §4

A549 = experiment: MTT cell survival assay, A549; format: cell-based; settings: Homo sapiens
Procedure: as §1, §2
MTT assay is commonly used to determine cell proliferation, percent of viable cells, and cytotoxicity. MTT (3-[4,5-dimethylthiazol-2-yl]2,5-diphenyltetrazolium bromide) is a yellow dye, which can be absorbed by the living cells and be reduced to purplish blue formazan crystals by succinate tetrazolium reductase in mitochondria. Formazan formation can therefore be used to assess and determine the survival rate of cells.
A549, NCI-H460, CL1-0, CL1-5 and DMS 114 cells were suspended and cultured in 10% fetal bovine serum (Life Technologies Inc.) containing RPM1-1640 culture medium that also includes 1% penicillin and 1% streptomycin. Human bronchial epithelium cell line, BEAS-2B was used as a control. The BEAS-2B cell line was cultured in LHC-9 serum-free medium. All these cell lines were incubated under 5% CO2, 37° C. for 24 hours. After cell proliferation, the cells were washed once with PBS, treated with the trypsin-EDTA, and then centrifuged at 1,200 rpm for 5 minutes to separate cells from supernatant. The cells were re-suspended in fresh culture medium (10 mL) and placed in 96 well plates.
To each of the 96 well plates containing A549, NCI-H460, CL1-0, CL1-5, DMS 114 or BEAS-2B, 0.03, 0.1, 0.3, 1 and 3 μg/ml of compound 1 were add. The 96 well plates were incubated at 37° C., 5% CO2 for 48 hours. Subsequently, in the dark environment to each well of the plates were added 2.5 mg/ml of MTT. The reaction was terminated by addition of 100 ul of lysis buffer after 4 hours. The survival rate of cells was calculated based on the measurement of absorption at the 570 nm wavelength by enzyme immunoassay analyzer.

[2] = 48 hours, read-out: IC50 (μg/ml), in vitro cell survival rate test, A549

SMILES	Concentration in lung versus other organs (FIG. 10) [1]	IC50 (NCI-H460) [µg/mL]	IC50 (DMS 114) [µM]	IC50 (A549; [2]) [µg/mL]	IC50 (A549; read-out: IC50 on A549 (text)) [µM]
COC1=C(OC)C(O)C(C/C=C(\C)CC/C=C(\C)CCC=C(C)C)C(C)C1=O (stereo not drawn) [Compound 1, 4-hydroxy-2,3-dimethoxy-6-methyl-5-(3,7,11-trimethyldodeca-2,6,10-trienyl)cyclohex-2-enone]	significantly higher concentration than other organs	0.82 (≈ 2.1 µM)	16	0.45	–
COC1=C(O)C(O)C(C/C=C(\C)CC/C=C(\C)CCC=C(C)C)C(C)C1=O (stereo not drawn) [Compound 4, 3,4-dihydroxy-2-methoxy-6-methyl-5-(3,7,11-trimethyldodeca-2,6,10-trienyl)cyclohex-2-enone]	–	–	–	3.24	–
COC1=C(OC)C(O)C(C/C=C(\C)CC/C=C(\C)CCCC(C)(C)O)C(C)C1=O (stereo not drawn) [Compound 5, 4-hydroxy-5-(11-hydroxy-3,7,11-trimethyldodeca-2,6-dienyl)-2,3-dimethoxy-6-methylcyclohex-2-enone]	–	–	–	13.5	–
COC1=C(OC)C(O)C(C/C=C(\C)CCC(=O)O)C(C)C1=O (stereo not drawn) [Compound 6]	–	–	–	28	28
COC1=C(OC)C(O)C(C/C=C(\C)CC/C=C(\C)CCCC(C)(C)OC)C(C)C1=O (stereo not drawn) [Compound 7, 4-hydroxy-2,3-dimethoxy-5-(11-methoxy-3,7,11-trimethyldodeca-2,6-dienyl)-6-methylcyclohex-2-enone]	–	–	–	10.5	–

Reference: US8309611B2, “Methods and compositions for treating lung cancer” (Golden Biotechnology Corporation, priority 2011, dated 2012)
